Experimental data as given in ChEMBL document CHEMBL1201862, “PubChem BioAssay data set” (2004).
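96-well plates; 48 h exposure; 5 concentrations. Endpoints by linear interpolation between flanking doses. Not reached: highest tested concentration assigned. Here, GI50 denotes the concentration required for 50% inhibition of growth.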 Calls of active or inactive are those of the source. Rule as the data show it: active = GI50 up to about 1.1 µM and inactive = higher.

Assays:
Experiment in all cases: DTP human tumour cell line panel, 48 h
786-0 = test system: 786-0
A498 = test system: A498
A549 = test system: A549
ACHN = test system: ACHN
CAKI-1 = test system: CAKI-1
CCRF-CEM = test system: CCRF-CEM
COLO 205 = test system: COLO 205
DLD-1 = test system: DLD-1
DMS-114 = test system: DMS-114
DMS-273 = test system: DMS-273
EKVX = test system: EKVX
HCC 2998 = test system: HCC 2998
HCT-116 = test system: HCT-116
HCT-15 = test system: HCT-15
HL-60 = test system: HL-60
HOP-18 = test system: HOP-18
HOP-62 = test system: HOP-62
HT-29 = test system: HT-29
IGROV-1 = test system: IGROV-1
K562 = test system: K562
KM-20L2 = test system: KM-20L2
KM12 = test system: KM12
LOX IMVI = test system: LOX IMVI
LXFL 529 = test system: LXFL 529
M14 = test system: M14
M19-MEL = test system: M19-MEL
MOLT-4 = test system: MOLT-4
Malme-3M = test system: Malme-3M
NCI-H226 = test system: NCI-H226
NCI-H23 = test system: NCI-H23
NCI-H460 = test system: NCI-H460
NCI-H522 = test system: NCI-H522
OVCAR-3 = test system: OVCAR-3
OVCAR-4 = test system: OVCAR-4
OVCAR-5 = test system: OVCAR-5
OVCAR-8 = test system: OVCAR-8
RXF 393 = test system: RXF 393
SF-268 = test system: SF-268
SF-295 = test system: SF-295
SF-539 = test system: SF-539
SK-MEL-28 = test system: SK-MEL-28
SK-MEL-2 = test system: SK-MEL-2
SK-MEL-5 = test system: SK-MEL-5
SK-OV-3 = test system: SK-OV-3
SN12C = test system: SN12C
SNB-19 = test system: SNB-19
SNB-75 = test system: SNB-75
SNB-78 = test system: SNB-78
SW-620 = test system: SW-620
TK-10 = test system: TK-10
U-251 = test system: U-251
UACC-257 = test system: UACC-257
UACC-62 = test system: UACC-62
XF498 = test system: XF498
HOP-92 = test system: HOP-92
RPMI-8226 = test system: RPMI-8226
SR = test system: SR
UO-31 = test system: UO-31

In the case of `COC1OC2COC(C)(C)OC2C(OC(C)=O)C1NC(=O)N(CCCl)N=O` (stereo not drawn), the GI50 (786-0) is reported as 59.4 µM (inactive), the GI50 (A498) is reported as > 100 µM (inactive) and the GI50 (A549) is reported as 83 µM (inactive). For the same compound, the GI50 (ACHN) was > 100 µM (inactive), the GI50 (CAKI-1) was > 100 µM (inactive) and the GI50 (CCRF-CEM) was 24.3 µM (inactive). The GI50 (COLO 205) was > 100 µM (inactive), the GI50 (DLD-1) was > 100 µM (inactive) and the GI50 (DMS-114) was > 100 µM (inactive). The GI50 (DMS-273) was > 100 µM (inactive), the GI50 (EKVX) was > 100 µM (inactive) and the GI50 (HCC 2998) was > 100 µM (inactive). The GI50 (HCT-116) was > 100 µM (inactive), the GI50 (HCT-15) was over 100 µM and the GI50 (HL-60) was 11.2 µM (inactive). The GI50 (HOP-18) was > 100 µM (inactive), the GI50 (HOP-62) was 48.1 µM (inactive) and the GI50 (HT-29) was > 100 µM (inactive). The GI50 (IGROV-1) was > 100 µM (inactive), the GI50 (K562) was 54.8 µM (inactive) and the GI50 (KM-20L2) was > 100 µM (inactive). For the same compound, the GI50 (KM12) was > 100 µM (inactive), the GI50 (LOX IMVI) was 28.7 µM (inactive) and the GI50 (LXFL 529) was > 100 µM (inactive). The GI50 (M14) was > 100 µM (inactive), the GI50 (M19-MEL) was > 100 µM (inactive) and the GI50 (MOLT-4) was 59.6 µM (inactive). For the same compound, the GI50 (Malme-3M) was > 100 µM (inactive), the GI50 (NCI-H226) was 47 µM (inactive) and the GI50 (NCI-H23) was > 100 µM (inactive). The GI50 (NCI-H460) was 46.7 µM (inactive), the GI50 (NCI-H522) was 11.7 µM (inactive) and the GI50 (OVCAR-3) was > 100 µM (inactive). The GI50 (OVCAR-4) was > 100 µM (inactive), the GI50 (OVCAR-5) was > 100 µM (inactive) and the GI50 (OVCAR-8) was > 100 µM (inactive). For the same compound, the GI50 (RXF 393) was > 100 µM (inactive), the GI50 (SF-268) was 8.65 µM (inactive) and the GI50 (SF-295) was 28.8 µM (inactive). The GI50 (SF-539) was 21.4 µM (inactive), the GI50 (SK-MEL-28) was > 100 µM (inactive) and the GI50 (SK-MEL-2) was > 100 µM (inactive). For the same compound, the GI50 (SK-MEL-5) was > 100 µM (inactive), the GI50 (SK-OV-3) was > 100 µM (inactive) and the GI50 (SN12C) was > 100 µM (inactive). For the same compound, the GI50 (SNB-19) was 46 µM (inactive), the GI50 (SNB-75) was 29.1 µM (inactive) and the GI50 (SNB-78) was > 100 µM (inactive). For the same compound, the GI50 (SW-620) was > 100 µM (inactive), the GI50 (TK-10) was > 100 µM (inactive) and the GI50 (U-251) was 33.7 µM (inactive). The GI50 (UACC-257) was > 100 µM (inactive), the GI50 (UACC-62) was 19.3 µM (inactive) and the GI50 (XF498) was > 100 µM (inactive).
In the case of `Cc1cc(=O)cc2sc3cc(Cl)ccc3nc1-2`, the GI50 (786-0) is reported as 12 µM (inactive), the GI50 (A498) is reported as 19.9 µM (inactive) and the GI50 (A549) is reported as 4.49 µM (inactive). For the same compound, the GI50 (ACHN) was 6.04 µM (inactive), the GI50 (CAKI-1) was 19.7 µM (inactive) and the GI50 (CCRF-CEM) was 1.39 µM (inactive). For the same compound, the GI50 (COLO 205) was 22.3 µM (inactive), the GI50 (DLD-1) was 6.49 µM (inactive) and the GI50 (DMS-273) was 6.17 µM (inactive). The GI50 (EKVX) was 4.72 µM (inactive), the GI50 (HCC 2998) was 10.5 µM (inactive) and the GI50 (HCT-116) was 9.42 µM (inactive). The GI50 (HCT-15) was 3.95 µM, the GI50 (HL-60) was 2.66 µM (inactive) and the GI50 (HOP-18) was 48.1 µM (inactive). For the same compound, the GI50 (HOP-62) was 15.6 µM (inactive), the GI50 (HOP-92) was 22.3 µM (inactive) and the GI50 (HT-29) was 20.3 µM (inactive). The GI50 (IGROV-1) was 12.1 µM (inactive), the GI50 (K562) was 4.09 µM (inactive) and the GI50 (KM-20L2) was 17.4 µM (inactive). For the same compound, the GI50 (KM12) was 4.5 µM (inactive), the GI50 (LOX IMVI) was 11.9 µM (inactive) and the GI50 (LXFL 529) was 15.2 µM (inactive). The GI50 (M14) was 4.4 µM (inactive), the GI50 (M19-MEL) was 16.3 µM (inactive) and the GI50 (MOLT-4) was 12.6 µM (inactive). For the same compound, the GI50 (Malme-3M) was 11.5 µM (inactive), the GI50 (NCI-H226) was 25.4 µM (inactive) and the GI50 (NCI-H23) was 13.7 µM (inactive). For the same compound, the GI50 (NCI-H460) was 7.55 µM (inactive), the GI50 (NCI-H522) was 2.54 µM (inactive) and the GI50 (OVCAR-3) was 8.89 µM (inactive). For the same compound, the GI50 (OVCAR-4) was 22.2 µM (inactive), the GI50 (OVCAR-5) was 21.1 µM (inactive) and the GI50 (OVCAR-8) was 8.99 µM (inactive). For the same compound, the GI50 (RPMI-8226) was 5.87 µM (inactive), the GI50 (RXF 393) was 4.76 µM (inactive) and the GI50 (SF-268) was 6.84 µM (inactive). For the same compound, the GI50 (SF-295) was 6.5 µM (inactive), the GI50 (SF-539) was 7.66 µM (inactive) and the GI50 (SK-MEL-28) was 17.8 µM (inactive). For the same compound, the GI50 (SK-MEL-2) was 7.01 µM (inactive), the GI50 (SK-MEL-5) was 3.65 µM (inactive) and the GI50 (SK-OV-3) was 20.7 µM (inactive). The GI50 (SN12C) was 7.45 µM (inactive), the GI50 (SNB-19) was 5.93 µM (inactive) and the GI50 (SNB-75) was 3.24 µM (inactive). For the same compound, the GI50 (SNB-78) was 17 µM (inactive), the GI50 (SR) was 3.07 µM (inactive) and the GI50 (SW-620) was 6.9 µM (inactive). The GI50 (TK-10) was 25.4 µM (inactive), the GI50 (U-251) was 6.53 µM (inactive) and the GI50 (UACC-257) was 16.9 µM (inactive). For the same compound, the GI50 (UACC-62) was 6.84 µM (inactive), the GI50 (UO-31) was 13.7 µM (inactive) and the GI50 (XF498) was 4.28 µM (inactive).
`CC(C)=CCC/C(C)=C/C=C/C(C)=C/C1C[C@@]2(C(O)O1)[C@H](CCCO)/C(=C(/C)C=O)CC[C@]2(C)O` (stereo partly drawn) was tested, and the GI50 (A549) was 7.8 µM (inactive), the GI50 (ACHN) was 11.6 µM (inactive) and the GI50 (CAKI-1) was 11.6 µM (inactive). For the same compound, the GI50 (COLO 205) was 1.08 µM (active), the GI50 (DLD-1) was 16.4 µM (inactive) and the GI50 (DMS-114) was 13.3 µM (inactive). The GI50 (DMS-273) was 1.39 µM (inactive), the GI50 (EKVX) was 11.9 µM (inactive) and the GI50 (HCC 2998) was 15 µM (inactive). The GI50 (HCT-116) was 20.2 µM (inactive), the GI50 (HCT-15) was 16.3 µM and the GI50 (HL-60) was 11.1 µM (inactive). The GI50 (HOP-18) was 19.1 µM (inactive), the GI50 (HOP-92) was < 0.01 µM (active) and the GI50 (HT-29) was 16.4 µM (inactive). The GI50 (IGROV-1) was 22.3 µM (inactive), the GI50 (K562) was 8.89 µM (inactive) and the GI50 (KM-20L2) was 15.3 µM (inactive). The GI50 (LOX IMVI) was 11.7 µM (inactive), the GI50 (M14) was 13.5 µM (inactive) and the GI50 (M19-MEL) was 16.2 µM (inactive). The GI50 (MOLT-4) was 4.95 µM (inactive), the GI50 (Malme-3M) was 4.59 µM (inactive) and the GI50 (NCI-H226) was 22.4 µM (inactive). For the same compound, the GI50 (NCI-H23) was > 10 µM (inactive), the GI50 (NCI-H460) was 6.64 µM (inactive) and the GI50 (NCI-H522) was 19.5 µM (inactive). The GI50 (OVCAR-5) was 40.8 µM (inactive), the GI50 (OVCAR-8) was 22 µM (inactive) and the GI50 (RXF 393) was 18.6 µM (inactive). For the same compound, the GI50 (SF-268) was 15.2 µM (inactive), the GI50 (SF-295) was 11.4 µM (inactive) and the GI50 (SF-539) was 12.2 µM (inactive). The GI50 (SK-MEL-28) was 15.9 µM (inactive), the GI50 (SK-MEL-2) was 18.6 µM (inactive) and the GI50 (SK-OV-3) was > 10 µM (inactive). The GI50 (SN12C) was 15.6 µM (inactive), the GI50 (SNB-19) was 19.1 µM (inactive) and the GI50 (SNB-75) was 51.9 µM (inactive). For the same compound, the GI50 (SNB-78) was 20.5 µM (inactive), the GI50 (SR) was 14.6 µM (inactive) and the GI50 (SW-620) was 10.4 µM (inactive). For the same compound, the GI50 (TK-10) was 25.5 µM (inactive), the GI50 (U-251) was > 10 µM (inactive) and the GI50 (UACC-257) was 25.4 µM (inactive). For the same compound, the GI50 (UO-31) was 17.3 µM (inactive) and the GI50 (XF498) was 18.3 µM (inactive).
